From ChEMBL document CHEMBL4507317, “Data for DCP probe BAY-899” (2021)

Tests used:
[1] = biological target: Muscarinic acetylcholine receptor M3 (Homo sapiens) (UniProt P20309); settings: Compound concentration 10.0 uM
[2] = biological target: 5-hydroxytryptamine receptor 2A (Homo sapiens, UniProt P28223); test: GPCRScan assay: inhibition of 5-HT2A; set-up: radioligand conc. used [nm] 1.2 – 2.4, parental cells HEKT
[3] = biological target: Cannabinoid receptor 1 (Homo sapiens) (UniProt P21554); test: CB1 Eurofins Bayer panel; settings: Compound concentration 10.0 uM
[4] = biological target: Histamine H2 receptor (Homo sapiens) (UniProt P25021); test: H2 Eurofins Bayer panel; settings: Compound concentration 10.0 uM
[5] = biological target: Mu-type opioid receptor (Homo sapiens) (UniProt P35372); test: mu (MOP) Eurofins Bayer panel; settings: Compound concentration 10.0 uM
[6] = biological target: Histamine H3 receptor (Homo sapiens) (UniProt Q9Y5N1); test: H3 Eurofins Bayer panel; settings: Compound concentration 10.0 uM
[7] = biological target: Beta-1 adrenergic receptor (Homo sapiens) (UniProt P08588); test: beta 1 Eurofins Bayer panel; settings: Compound concentration 10.0 uM
[8] = biological target: T1, Muscarinic acetylcholine receptor M4 (Homo sapiens) (UniProt P08173); test: M4 Eurofins Bayer panel; settings: Compound concentration 10.0 uM
T1 sequence (whole entry): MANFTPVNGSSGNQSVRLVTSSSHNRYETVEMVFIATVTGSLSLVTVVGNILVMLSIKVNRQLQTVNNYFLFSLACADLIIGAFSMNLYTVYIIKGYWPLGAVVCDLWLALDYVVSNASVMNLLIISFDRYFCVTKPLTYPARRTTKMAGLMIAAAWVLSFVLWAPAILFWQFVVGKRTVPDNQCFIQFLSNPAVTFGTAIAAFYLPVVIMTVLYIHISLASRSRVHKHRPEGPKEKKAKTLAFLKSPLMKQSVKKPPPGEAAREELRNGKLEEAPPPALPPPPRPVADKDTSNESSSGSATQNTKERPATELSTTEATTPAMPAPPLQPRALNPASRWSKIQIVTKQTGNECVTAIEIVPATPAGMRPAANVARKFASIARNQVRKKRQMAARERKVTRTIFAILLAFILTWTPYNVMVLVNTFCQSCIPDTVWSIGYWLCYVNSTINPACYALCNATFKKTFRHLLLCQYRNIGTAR

[9] = biological target: 5-hydroxytryptamine receptor 7 (Homo sapiens) (UniProt P34969); settings: Compound concentration 10.0 uM
[10] = system: Receptor-type tyrosine-protein kinase FLT3 (Homo sapiens), P36888 [K663Q]; settings: Compound concentration 1000.0 nM
[11] = biological target: T2, Muscarinic acetylcholine receptor M1 (Homo sapiens) (UniProt P11229); test: M1 Eurofins Bayer panel; settings: Compound concentration 10.0 uM
T2 sequence (whole entry): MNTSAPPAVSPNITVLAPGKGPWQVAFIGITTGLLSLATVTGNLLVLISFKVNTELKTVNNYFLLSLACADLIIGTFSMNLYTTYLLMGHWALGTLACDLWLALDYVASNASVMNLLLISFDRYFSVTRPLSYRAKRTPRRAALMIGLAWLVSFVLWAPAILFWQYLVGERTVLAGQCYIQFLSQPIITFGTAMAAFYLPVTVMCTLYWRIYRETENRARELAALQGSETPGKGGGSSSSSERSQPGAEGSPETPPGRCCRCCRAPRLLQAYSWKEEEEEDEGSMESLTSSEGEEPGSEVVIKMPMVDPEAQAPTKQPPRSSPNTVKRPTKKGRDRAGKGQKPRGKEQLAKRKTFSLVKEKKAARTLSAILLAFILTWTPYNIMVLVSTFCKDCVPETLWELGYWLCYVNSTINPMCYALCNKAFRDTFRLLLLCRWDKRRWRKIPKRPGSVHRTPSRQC

[12] = biological target: Prostaglandin E2 receptor EP3 subtype (Homo sapiens) (UniProt P43115); test: EP3 Eurofins Bayer panel; settings: Compound concentration 10.0 uM
[13] = biological target: 5-hydroxytryptamine receptor 6 (Homo sapiens) (UniProt P50406); test: 5-HT6 Eurofins Bayer panel; settings: Compound concentration 10.0 uM
[14] = biological target: Kappa-type opioid receptor (Homo sapiens, UniProt P41145); test: kappa (KOP) Eurofins Bayer panel; settings: Compound concentration 10.0 uM
Kappa-type opioid receptor, sequence (P41145 whole entry): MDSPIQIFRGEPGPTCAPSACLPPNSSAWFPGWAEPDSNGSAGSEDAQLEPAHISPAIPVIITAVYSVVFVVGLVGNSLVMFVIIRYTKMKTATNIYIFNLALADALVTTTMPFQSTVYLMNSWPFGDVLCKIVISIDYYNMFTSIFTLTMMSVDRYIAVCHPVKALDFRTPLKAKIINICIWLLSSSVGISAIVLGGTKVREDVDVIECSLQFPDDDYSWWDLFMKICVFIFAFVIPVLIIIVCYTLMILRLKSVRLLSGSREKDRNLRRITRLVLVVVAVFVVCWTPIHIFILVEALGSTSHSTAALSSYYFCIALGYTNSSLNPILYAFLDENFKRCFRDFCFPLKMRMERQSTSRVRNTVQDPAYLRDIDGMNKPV

Beta-1 adrenergic receptor (Homo sapiens), sequence (P08588 whole entry, looked up): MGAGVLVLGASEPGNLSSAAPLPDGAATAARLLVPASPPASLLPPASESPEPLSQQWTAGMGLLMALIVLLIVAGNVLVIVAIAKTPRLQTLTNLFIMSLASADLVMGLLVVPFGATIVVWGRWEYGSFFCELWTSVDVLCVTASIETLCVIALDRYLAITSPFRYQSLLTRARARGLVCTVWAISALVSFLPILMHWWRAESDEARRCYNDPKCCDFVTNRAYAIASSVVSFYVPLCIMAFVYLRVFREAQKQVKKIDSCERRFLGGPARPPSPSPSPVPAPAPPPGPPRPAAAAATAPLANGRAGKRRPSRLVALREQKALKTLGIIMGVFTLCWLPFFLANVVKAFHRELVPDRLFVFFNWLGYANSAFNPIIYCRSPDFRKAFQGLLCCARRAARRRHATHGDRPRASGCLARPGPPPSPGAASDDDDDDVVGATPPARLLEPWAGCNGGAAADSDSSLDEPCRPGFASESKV
Cannabinoid receptor 1 (Homo sapiens), sequence (P21554 whole entry): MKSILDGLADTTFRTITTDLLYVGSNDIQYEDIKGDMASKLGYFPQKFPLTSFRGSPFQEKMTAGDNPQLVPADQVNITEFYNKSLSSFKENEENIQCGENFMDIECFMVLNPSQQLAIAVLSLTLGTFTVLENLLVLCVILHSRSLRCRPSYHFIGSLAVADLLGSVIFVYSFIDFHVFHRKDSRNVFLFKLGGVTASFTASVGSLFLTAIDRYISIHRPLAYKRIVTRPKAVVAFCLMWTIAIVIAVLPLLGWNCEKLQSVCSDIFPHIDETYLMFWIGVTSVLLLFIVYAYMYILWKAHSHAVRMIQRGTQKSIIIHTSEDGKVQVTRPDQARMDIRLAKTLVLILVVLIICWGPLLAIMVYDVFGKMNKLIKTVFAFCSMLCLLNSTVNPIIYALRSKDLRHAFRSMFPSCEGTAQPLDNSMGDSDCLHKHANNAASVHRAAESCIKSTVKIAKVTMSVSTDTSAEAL
5-hydroxytryptamine receptor 6 (Homo sapiens), sequence (P50406 whole entry): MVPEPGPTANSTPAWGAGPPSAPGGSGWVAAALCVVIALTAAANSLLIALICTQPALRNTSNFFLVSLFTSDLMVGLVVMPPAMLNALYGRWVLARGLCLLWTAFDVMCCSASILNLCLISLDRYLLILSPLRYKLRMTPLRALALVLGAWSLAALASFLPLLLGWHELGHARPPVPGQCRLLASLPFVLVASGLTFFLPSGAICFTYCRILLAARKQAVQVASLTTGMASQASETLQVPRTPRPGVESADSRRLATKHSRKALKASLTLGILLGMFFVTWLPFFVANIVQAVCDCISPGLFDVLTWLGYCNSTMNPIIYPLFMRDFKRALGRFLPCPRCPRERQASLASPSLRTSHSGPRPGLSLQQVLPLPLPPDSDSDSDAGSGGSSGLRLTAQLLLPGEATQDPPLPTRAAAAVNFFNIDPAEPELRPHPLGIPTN
Mu-type opioid receptor (Homo sapiens), sequence (P35372 whole entry): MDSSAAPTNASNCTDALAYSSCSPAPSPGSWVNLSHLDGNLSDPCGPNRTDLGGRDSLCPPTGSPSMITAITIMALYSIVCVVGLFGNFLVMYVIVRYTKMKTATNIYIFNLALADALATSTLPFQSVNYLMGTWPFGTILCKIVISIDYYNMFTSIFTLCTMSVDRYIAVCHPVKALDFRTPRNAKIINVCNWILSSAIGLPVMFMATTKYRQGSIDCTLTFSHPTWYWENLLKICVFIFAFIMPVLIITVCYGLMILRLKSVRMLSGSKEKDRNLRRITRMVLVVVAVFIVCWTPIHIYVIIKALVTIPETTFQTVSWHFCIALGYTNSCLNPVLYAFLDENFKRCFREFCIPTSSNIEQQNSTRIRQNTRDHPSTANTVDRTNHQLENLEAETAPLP
Histamine H2 receptor (Homo sapiens), sequence (P25021 whole entry): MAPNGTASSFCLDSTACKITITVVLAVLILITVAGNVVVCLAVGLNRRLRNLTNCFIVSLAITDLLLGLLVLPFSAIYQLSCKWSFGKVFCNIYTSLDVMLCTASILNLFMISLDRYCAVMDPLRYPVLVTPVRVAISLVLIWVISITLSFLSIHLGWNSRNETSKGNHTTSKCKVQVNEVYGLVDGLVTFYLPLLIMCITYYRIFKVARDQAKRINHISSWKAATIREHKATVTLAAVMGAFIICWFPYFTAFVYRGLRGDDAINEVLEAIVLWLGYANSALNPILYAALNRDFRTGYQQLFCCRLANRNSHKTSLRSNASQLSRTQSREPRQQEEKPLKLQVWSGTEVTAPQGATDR
Histamine H3 receptor (Homo sapiens), sequence (Q9Y5N1 whole entry): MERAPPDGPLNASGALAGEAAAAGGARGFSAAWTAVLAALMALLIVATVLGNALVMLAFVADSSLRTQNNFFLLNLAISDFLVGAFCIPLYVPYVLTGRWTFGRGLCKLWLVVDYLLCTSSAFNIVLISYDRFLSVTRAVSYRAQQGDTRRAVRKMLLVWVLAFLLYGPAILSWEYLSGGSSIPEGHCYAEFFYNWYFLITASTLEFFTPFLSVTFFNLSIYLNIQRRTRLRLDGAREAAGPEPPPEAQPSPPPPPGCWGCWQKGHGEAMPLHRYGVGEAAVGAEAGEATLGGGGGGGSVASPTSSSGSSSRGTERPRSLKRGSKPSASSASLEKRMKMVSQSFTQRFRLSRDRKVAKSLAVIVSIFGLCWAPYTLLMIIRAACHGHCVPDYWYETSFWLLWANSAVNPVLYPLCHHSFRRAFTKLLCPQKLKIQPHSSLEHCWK
Prostaglandin E2 receptor EP3 subtype (Homo sapiens), sequence (P43115 whole entry): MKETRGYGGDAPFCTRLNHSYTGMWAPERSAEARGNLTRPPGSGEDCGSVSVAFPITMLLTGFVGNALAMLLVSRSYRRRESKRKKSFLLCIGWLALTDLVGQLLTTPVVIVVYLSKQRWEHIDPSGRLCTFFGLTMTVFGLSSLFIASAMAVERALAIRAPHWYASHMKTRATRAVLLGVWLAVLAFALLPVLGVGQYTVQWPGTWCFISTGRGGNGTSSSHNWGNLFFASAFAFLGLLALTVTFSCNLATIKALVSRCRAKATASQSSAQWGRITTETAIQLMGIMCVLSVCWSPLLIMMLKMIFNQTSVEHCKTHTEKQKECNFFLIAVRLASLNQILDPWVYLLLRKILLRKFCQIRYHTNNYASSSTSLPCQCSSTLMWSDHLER
5-hydroxytryptamine receptor 2A, sequence (P28223 whole entry): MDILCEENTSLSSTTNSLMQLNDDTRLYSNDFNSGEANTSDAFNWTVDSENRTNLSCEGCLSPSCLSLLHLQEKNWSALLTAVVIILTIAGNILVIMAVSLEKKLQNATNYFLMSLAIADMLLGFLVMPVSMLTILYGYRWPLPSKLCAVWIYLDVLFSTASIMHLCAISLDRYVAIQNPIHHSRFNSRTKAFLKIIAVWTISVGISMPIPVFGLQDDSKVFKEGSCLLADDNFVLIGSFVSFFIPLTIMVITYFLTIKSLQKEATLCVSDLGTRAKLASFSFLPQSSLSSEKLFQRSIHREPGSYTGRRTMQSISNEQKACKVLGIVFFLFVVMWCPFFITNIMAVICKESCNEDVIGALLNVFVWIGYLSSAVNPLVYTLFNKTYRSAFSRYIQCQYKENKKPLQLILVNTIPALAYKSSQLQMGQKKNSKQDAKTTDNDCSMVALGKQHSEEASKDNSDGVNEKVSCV
5-hydroxytryptamine receptor 7 (Homo sapiens), sequence (P34969 whole entry): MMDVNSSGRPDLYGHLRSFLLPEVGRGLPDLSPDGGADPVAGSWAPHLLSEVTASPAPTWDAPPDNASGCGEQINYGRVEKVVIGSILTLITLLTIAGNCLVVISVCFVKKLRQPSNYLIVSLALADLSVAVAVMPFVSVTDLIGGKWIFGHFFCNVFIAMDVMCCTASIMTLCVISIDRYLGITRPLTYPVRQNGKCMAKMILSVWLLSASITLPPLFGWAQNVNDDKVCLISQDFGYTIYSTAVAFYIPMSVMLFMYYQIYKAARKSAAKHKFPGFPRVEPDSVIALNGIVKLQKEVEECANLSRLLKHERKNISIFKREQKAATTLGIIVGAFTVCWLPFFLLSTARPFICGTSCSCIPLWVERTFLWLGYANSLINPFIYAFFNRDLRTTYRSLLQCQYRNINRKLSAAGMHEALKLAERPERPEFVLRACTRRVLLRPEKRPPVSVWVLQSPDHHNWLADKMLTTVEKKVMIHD
Muscarinic acetylcholine receptor M3 (Homo sapiens), sequence (P20309 whole entry, looked up): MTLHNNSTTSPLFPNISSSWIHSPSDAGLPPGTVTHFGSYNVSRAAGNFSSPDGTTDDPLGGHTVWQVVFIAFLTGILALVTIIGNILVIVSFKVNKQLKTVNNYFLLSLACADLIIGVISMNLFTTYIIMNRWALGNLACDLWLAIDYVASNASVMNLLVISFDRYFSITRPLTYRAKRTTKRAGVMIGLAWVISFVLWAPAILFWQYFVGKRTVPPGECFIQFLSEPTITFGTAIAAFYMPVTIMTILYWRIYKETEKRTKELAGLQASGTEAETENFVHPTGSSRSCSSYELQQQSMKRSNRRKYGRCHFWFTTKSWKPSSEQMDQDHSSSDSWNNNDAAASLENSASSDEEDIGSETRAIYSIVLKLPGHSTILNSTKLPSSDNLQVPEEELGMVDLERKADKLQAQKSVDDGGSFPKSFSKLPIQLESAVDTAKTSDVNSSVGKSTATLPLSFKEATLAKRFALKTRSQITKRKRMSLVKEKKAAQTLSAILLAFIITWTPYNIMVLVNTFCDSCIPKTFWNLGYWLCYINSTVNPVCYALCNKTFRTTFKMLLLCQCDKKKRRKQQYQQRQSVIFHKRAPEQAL

## O=C(Nc1ccc(Oc2ccc(F)cc2)cc1)N1CCc2ncccc2[C@H]1c1ccc(F)cc1 [BAY-897]
[1]
  inhibition: -3.47%
[2]
  Ki: 3.67 µM

## O=C(Nc1cnc(Oc2ccc(F)cc2)nc1)N1CCc2ncccc2[C@@H]1c1ccc(F)cc1 [BAY-899]
[3]
  Activation (% of control): 52%
  Inhibition (% of control): 4%
[4]
  Activation (% of control): -2%
  Inhibition (% of control): 34%
[5]
  Activation (% of control): 56%
  Inhibition (% of control): 8%
[6]
  Activation (% of control): 38%
  Inhibition (% of control): -19%
[7]
  Activation (% of control): -1%
  Inhibition (% of control): 13%
[8]
  Activation (% of control): -6%
  Inhibition (% of control): 2%
[9]
  inhibition: 2.63%
[10]
  residual activity: 100%
[11]
  Activation (% of control): 1%
  Inhibition (% of control): 32%
[12]
  Activation (% of control): -1%
  Inhibition (% of control): -5%
[13]
  Activation (% of control): -1%
  Inhibition (% of control): 12%
[14]
  Activation (% of control): 56%
  Inhibition (% of control): -10%
